Laboratory results taken from patent US12509444B2, “Compounds and methods for CD73 modulation and indications therefor” (Plexxikon Inc., priority 2019, dated 2025).

Legend:
[1] = target: T1, human CD73 (Homo sapiens, UniProt P21589); experiment: Inhibitor activity against CD73 in cell based assay (CD73 expressing CHO-K1 cells); conditions: CHO-K1 cells expressing human CD73, 150 μM AMP, 4 hours of incubation; read-out: CHO-K1 CELL VARIANT: CD73 IC50
T1 construct: expressed in transfected cells
T1 sequence (P21589 27-549): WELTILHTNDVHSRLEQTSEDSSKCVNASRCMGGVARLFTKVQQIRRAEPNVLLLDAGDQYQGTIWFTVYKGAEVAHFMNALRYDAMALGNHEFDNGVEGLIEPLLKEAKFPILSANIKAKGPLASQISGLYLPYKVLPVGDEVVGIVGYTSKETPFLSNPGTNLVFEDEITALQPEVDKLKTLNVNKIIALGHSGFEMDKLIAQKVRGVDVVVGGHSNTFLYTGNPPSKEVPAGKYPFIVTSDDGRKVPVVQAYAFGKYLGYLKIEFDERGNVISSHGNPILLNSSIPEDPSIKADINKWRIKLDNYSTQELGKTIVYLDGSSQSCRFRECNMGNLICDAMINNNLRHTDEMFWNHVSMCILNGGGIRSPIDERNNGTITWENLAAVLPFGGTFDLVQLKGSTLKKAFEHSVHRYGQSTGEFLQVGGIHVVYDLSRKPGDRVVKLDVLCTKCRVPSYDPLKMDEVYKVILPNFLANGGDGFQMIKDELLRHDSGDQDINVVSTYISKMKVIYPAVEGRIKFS
Method in brief: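 Residual supernatant AMP was quantified via CellTiter-Glo luminescence (1 μM ATP added, 30 min, room temperature) after a 4 h exposure of human CD73-expressing CHO-K1 cells to 150 μM AMP plus compound, top final 10 μM, 8 points. IC50 came from nonlinear regression of percent inhibition.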

[2] = target: T2, Human CD73 (amino acid residues 27-549) (Homo sapiens, UniProt P21589); experiment: CD73 enzymatic assay (luciferase-based indirect assay, CellTiter-Glo); type: biochemical; conditions: 0.4 nM CD73, 150 μM AMP, 1 hour at room temperature
T2 construct: Human CD73 (amino acid residues 27-549); His tag (N); made in house; host or cells: E. coli
T2 sequence (P21589 27-549): T1 sequence (P21589 27-549)
Method in brief: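 Residual AMP inhibits luciferase, so luminescence reports CD73 turnover; read with CellTiter-Glo 2.0 plus 1 μM final ATP, 30 min. Reaction used 0.4 nM N-His CD73 (27-549, E. coli), 150 μM AMP, HEPES pH 7.4 with Tween 20, 1 h at room temperature. IC50 fitted by nonlinear regression.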

| IC50 [1] [µM] | IC50 [2] [µM] | SMILES |
| --- | --- | --- |
| 0.001 to 10 | 0.001 to 10 | Cn1ncc(N2CC[C@@H](OC(=O)N[C@H]3CC[C@H](NS(=O)(=O)c4ccccc4Br)CC3)C2)c(Cl)c1=O [P-0239, (R)-1-(5-chloro-1-methyl-6-oxo-1,6-dihydropyridazin-4-yl)pyrrolidin-3-yl ((1r,4R)-4-((2-bromophenyl)sulfonamido)cyclohexyl)carbamate] |
| 0.001 to 10 | 0.001 to 10 | O=C(NCC1CCNCC1)O[C@@H]1CCN(c2cn[nH]c(=O)c2Cl)C1 [P-0240, (R)-1-(5-chloro-6-oxo-1,6-dihydropyridazin-4-yl)pyrrolidin-3-yl (piperidin-4-ylmethyl)carbamate] |
| 0.001 to 10 | 0.001 to 10 | O=C(N[C@@H]1CC[C@H](NC(=O)c2ccccc2)C1)O[C@@H]1CCN(c2cn[nH]c(=O)c2Cl)C1 [P-0243, (R)-1-(5-chloro-6-oxo-1,6-dihydropyridazin-4-yl)pyrrolidin-3-yl ((1R,3S)-3-benzamidocyclopentyl) carbamate] |
| 0.001 to 10 | 0.001 to 10 | Cc1cccc(S(=O)(=O)N[C@H]2CC[C@H](NC(=O)O[C@@H]3CCN(c4cn[nH]c(=O)c4Cl)C3)CC2)c1 [P-0249, (R)-1-(5-chloro-6-oxo-1,6-dihydropyridazin-4-yl)pyrrolidin-3-yl ((1r,4R)-4-((3-methylphenyl)sulfonamido)cyclohexyl)carbamate] |
| 0.001 to 10 | 0.001 to 10 | Cc1ccccc1S(=O)(=O)N[C@H]1CC[C@H](NC(=O)O[C@@H]2CCN(c3cn[nH]c(=O)c3Cl)C2)CC1 [P-0250, (R)-1-(5-chloro-6-oxo-1,6-dihydropyridazin-4-yl)pyrrolidin-3-yl ((1r,4R)-4-((2-methylphenyl)sulfonamido)cyclohexyl)carbamate] |
| 0.001 to 10 | 0.001 to 10 | COc1ccc(S(=O)(=O)N[C@H]2CC[C@H](NC(=O)O[C@@H]3CCN(c4cn[nH]c(=O)c4Cl)C3)CC2)cn1 [P-0252, (R)-1-(5-chloro-6-oxo-1,6-dihydropyridazin-4-yl)pyrrolidin-3-yl ((1r,4R)-4-((6-methoxypyridine)-3-sulfonamido)cyclohexyl) carbamate] |
| 0.001 to 10 | 0.001 to 10 | O=C(N[C@H]1CC[C@H](NC(=O)c2ccccn2)CC1)O[C@@H]1CCN(c2cn[nH]c(=O)c2Cl)C1 [P-0260, (R)-1-(5-chloro-6-oxo-1,6-dihydropyridazin-4-yl)pyrrolidin-3-yl ((1r,4R)-4-(picolinamido)cyclohexyl) carbamate] |
| 0.001 to 10 | 0.001 to 10 | N#Cc1ccc(C(=O)N[C@H]2CC[C@H](NC(=O)O[C@@H]3CCN(c4cn[nH]c(=O)c4Cl)C3)CC2)cc1 [P-0261, (R)-1-(5-chloro-6-oxo-1,6-dihydropyridazin-4-yl)pyrrolidin-3-yl ((1r,4R)-4-(4-cyanobenzamido)cyclohexyl) carbamate] |
| 10 to 100 | 0.001 to 10 | CC(C)C(=O)N[C@H]1CC[C@H](NC(=O)O[C@@H]2CCN(c3cn[nH]c(=O)c3Cl)C2)CC1 [P-0263] |

Further lines, the compound ahead of its results:

| SMILES | IC50 [1] [µM] | IC50 [2] [µM] |
| --- | --- | --- |
| CC(=O)N1CCC(CNC(=O)O[C@@H]2CCN(c3cn[nH]c(=O)c3Cl)C2)CC1 [P-0241, (R)-1-(5-chloro-6-oxo-1,6-dihydropyridazin-4-yl)pyrrolidin-3-yl ((1-acetylpiperidin-4-yl)methyl)carbamate] | 0.001 to 10 | 0.001 to 10 |
| O=CN1CCC(CNC(=O)O[C@@H]2CCN(c3cn[nH]c(=O)c3Cl)C2)CC1 [P-0242, (R)-1-(5-chloro-6-oxo-1,6-dihydropyridazin-4-yl)pyrrolidin-3-yl ((1-formylpiperidin-4-yl)methyl)carbamate] | 0.001 to 10 | 0.001 to 10 |
| COC(=O)Cn1ncc(N2CC[C@@H](OC(=O)NC3CCC(F)(F)CC3)C2)c(Cl)c1=O [P-0244, methyl (R)-2-(5-chloro-4-(3-(((4,4-difluorocyclohexyl)carbamoyl)oxy)pyrrolidin-1-yl)-6-oxopyridazin-1(6H)-yl)acetate] | 10 to 100 | 0.001 to 10 |
| COCCn1ncc(N2CC[C@@H](OC(=O)NC3CCC(F)(F)CC3)C2)c(Cl)c1=O [P-0245, (R)-1-(5-chloro-1-(2-methoxyethyl)-6-oxo-1,6-dihydropyridazin-4-yl)pyrrolidin-3-yl (4,4-difluorocyclohexyl)carbamate] | 10 to 100 | 0.001 to 10 |
| O=C(NC1CCC(F)(F)CC1)O[C@@H]1CCN(c2cnn(CC(O)CO)c(=O)c2Cl)C1 (stereo partly drawn) [P-0246, (3R)-1-(5-chloro-1-(2,3-dihydroxypropyl)-6-oxo-1,6-dihydropyridazin-4-yl)pyrrolidin-3-yl (4,4-difluorocyclohexyl)carbamate] | 0.001 to 10 | 0.001 to 10 |
| CCS(=O)(=O)N[C@H]1CC[C@H](NC(=O)O[C@@H]2CCN(c3cn[nH]c(=O)c3Cl)C2)CC1 [P-0247, (R)-1-(5-chloro-6-oxo-1,6-dihydropyridazin-4-yl)pyrrolidin-3-yl ((1r,4R)-4-(ethylsulfonamido)cyclohexyl) carbamate] | 0.001 to 10 | 0.001 to 10 |
| N#Cc1ccc(S(=O)(=O)N[C@H]2CC[C@H](NC(=O)O[C@@H]3CCN(c4cn[nH]c(=O)c4Cl)C3)CC2)cc1 [P-0248, (R)-1-(5-chloro-6-oxo-1,6-dihydropyridazin-4-yl)pyrrolidin-3-yl ((1r,4R)-4-((4-cyanophenyl)sulfonamido)cyclohexyl)carbamate] | 0.001 to 10 | 0.001 to 10 |
| COc1ccc(S(=O)(=O)N[C@H]2CC[C@H](NC(=O)O[C@@H]3CCN(c4cn[nH]c(=O)c4Cl)C3)CC2)cc1 [P-0251, (R)-1-(5-chloro-6-oxo-1,6-dihydropyridazin-4-yl)pyrrolidin-3-yl ((1r,4R)-4-((4-methoxyphenyl)sulfonamido)cyclohexyl)carbamate] | 0.001 to 10 | 0.001 to 10 |
| O=C(N[C@H]1CC[C@H](NS(=O)(=O)c2ccc(C(F)(F)F)nc2)CC1)O[C@@H]1CCN(c2cn[nH]c(=O)c2Cl)C1 [P-0253, (R)-1-(5-chloro-6-oxo-1,6-dihydropyridazin-4-yl)pyrrolidin-3-yl ((1r,4R)-4-((6-(trifluoromethyl)pyridine)-3-sulfonamido)cyclohexyl) carbamate] | 0.001 to 10 | 0.001 to 10 |
| O=C(N[C@H]1CC[C@H](NS(=O)(=O)c2ccc(C(F)(F)F)cc2)CC1)O[C@@H]1CCN(c2cn[nH]c(=O)c2Cl)C1 [P-0254, (R)-1-(5-chloro-6-oxo-1,6-dihydropyridazin-4-yl)pyrrolidin-3-yl ((1r,4R)-4-((4-(trifluoromethyl)phenyl)sulfonamido)cyclohexyl)carbamate] | 0.001 to 10 | 0.001 to 10 |
| Cn1cc(S(=O)(=O)N[C@H]2CC[C@H](NC(=O)O[C@@H]3CCN(c4cn[nH]c(=O)c4Cl)C3)CC2)cn1 [P-0255, (R)-1-(5-chloro-6-oxo-1,6-dihydropyridazin-4-yl)pyrrolidin-3-yl ((1r,4R)-4-((1-methyl-1H-pyrazole)-4-sulfonamido)cyclohexyl) carbamate] | 0.001 to 10 | 0.001 to 10 |
| O=C(N[C@H]1CC[C@H](NC(=O)c2cccnc2)CC1)O[C@@H]1CCN(c2cn[nH]c(=O)c2Cl)C1 [P-0256, (R)-1-(5-chloro-6-oxo-1,6-dihydropyridazin-4-yl)pyrrolidin-3-yl ((1r,4R)-4-(nicotinamido)cyclohexyl) carbamate] | 0.001 to 10 | 0.001 to 10 |
| O=C(N[C@H]1CC[C@H](NC(=O)C2CC2)CC1)O[C@@H]1CCN(c2cn[nH]c(=O)c2Cl)C1 [P-0257, (R)-1-(5-chloro-6-oxo-1,6-dihydropyridazin-4-yl)pyrrolidin-3-yl ((1r,4R)-4-(cyclopropanecarboxamido)cyclohexyl)carbamate] | 0.001 to 10 | 0.001 to 10 |
| O=C(N[C@H]1CC[C@H](NC(=O)C2CCC2)CC1)O[C@@H]1CCN(c2cn[nH]c(=O)c2Cl)C1 [P-0258, (R)-1-(5-chloro-6-oxo-1,6-dihydropyridazin-4-yl)pyrrolidin-3-yl ((1r,4R)-4-(cyclobutanecarboxamido)cyclohexyl)carbamate] | 0.001 to 10 | 0.001 to 10 |
| O=C(N[C@H]1CC[C@H](NC(=O)C2CCCC2)CC1)O[C@@H]1CCN(c2cn[nH]c(=O)c2Cl)C1 [P-0259, (R)-1-(5-chloro-6-oxo-1,6-dihydropyridazin-4-yl)pyrrolidin-3-yl ((1r,4R)-4-(cyclopentanecarboxamido)cyclohexyl)carbamate] | 0.001 to 10 | 0.001 to 10 |
| CC(C)(C)C(=O)N[C@H]1CC[C@H](NC(=O)O[C@@H]2CCN(c3cn[nH]c(=O)c3Cl)C2)CC1 [P-0262, (R)-1-(5-chloro-6-oxo-1,6-dihydropyridazin-4-yl)pyrrolidin-3-yl ((1r,4R)-4-pivalamidocyclohexyl) carbamate] | 0.001 to 10 | 0.001 to 10 |
